Experimental data as given in BindingDB's records for patent US11680056 (Xinthera, 2023).
pIC50: −log10 of the molar value. Where “and” joins values, the source holds several entries; their conditions need not be identical. Equal entries are not always repeated.

Target: T1, MAP kinase-activated protein kinase 2 [46-400] (Homo sapiens, UniProt P49137)
T1 construct: 46-400
Assay: Biochemical Assay
Procedure: This study evaluates the inhibitory potency of invention compound on p38/MK2 pathway vs p38/PRAK pathway. More specially the compound concentration (IC50) was determined that inhibited half of the maximal activation of MK2 or PRAK by p38. MK2 activation study was set up without or with a serial of 10-point 1:3 dilution of invention compound at top dose of […], and PRAK activation study was set up without or with a serial of 10-point 1:3 dilution of invention compound at top dose of 300 μM. The MK2 and PRAK activity were determined by the phosphorylation level of HSP27 peptide conjugated with FITC. […] After 2 h incubation of the reaction mixture with various concentration of invention compound (200 nL), 60 μL 1×IMAP solution Mixture (Molecular Devices, Cat R8127) was added to the reaction mixture and incubated for another half hour. The signal was then read by Synergy Neo2 Multi-Mode Microplate Reader with filter setting (Ex/Em=485 nm/FITC FP-P pol 528 nm & FITC FP-S pol 528 nm). The signal was then normalized to vehicle control and fitted in Xfit to generate IC50. The selectivity of MK2 over PRAK was calculated by the formular Selectivity=IC50 of PRAK/IC50 of MK2.

T1 sequence (P49137 46-400): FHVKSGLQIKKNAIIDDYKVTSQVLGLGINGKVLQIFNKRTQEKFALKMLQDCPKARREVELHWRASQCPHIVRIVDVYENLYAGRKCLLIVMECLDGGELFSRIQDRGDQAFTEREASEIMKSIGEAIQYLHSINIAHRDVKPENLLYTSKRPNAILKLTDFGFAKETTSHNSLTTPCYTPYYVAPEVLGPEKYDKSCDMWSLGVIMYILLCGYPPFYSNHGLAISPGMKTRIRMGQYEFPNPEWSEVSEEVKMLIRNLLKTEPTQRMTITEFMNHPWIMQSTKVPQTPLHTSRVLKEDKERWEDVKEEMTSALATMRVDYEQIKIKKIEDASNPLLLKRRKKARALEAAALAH

Row | Compound | pIC50
1 | Cc1cnc(-n2nc(C(C)(C)O)cc2C2CC2)cc1-n1c(C)cc(OCc2ncc(F)cc2F)c(Cl)c1=O [US11680056, Example 20A] | 5.70 and < 5.00
2 | Cc1cnnc(COc2cc(C)n(-c3cc(-c4ccnc(C(C)(C)O)n4)ncc3C)c(=O)c2Cl)c1 [US11680056, Example 28A] | < 5.00
3 | Cc1nn(-c2ccnc(C(C)(C)O)n2)cc1-n1c(C)cc(OCc2ncc(F)cc2F)c(Cl)c1=O [US11680056, Example 30] | 6.20
